molecular target: Polθ theta (1-899) (hPolQ) (Homo sapiens (Human), UniProt O75417); experiment: Biological Assay 1: Polθ ATPase activity, NADH oxidation-coupled enzymatic assay (10 nM enzyme, 30 min); assay type: biochemical; settings: Polθ (1-899) 10 nM, 100 μM ATP, 300 nM dT50 ssDNA; Examples 1 to 268; read-out: ATPase NADH coupling:Standard Screening:hPolQ IC50
In short: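 ATP turnover was coupled to NADH oxidation and followed at 340 nm every minute for 30 min. Enzyme (residues 1-899, 10 nM) sat with compound for 15 min at room temperature before an equal-volume addition of 100 μM ATP plus 300 nM dT50 ssDNA. Progress-curve slopes from 10-point dilutions were fitted by a four-parameter model.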

Polθ theta (1-899) (hPolQ), sequence (O75417 1-899): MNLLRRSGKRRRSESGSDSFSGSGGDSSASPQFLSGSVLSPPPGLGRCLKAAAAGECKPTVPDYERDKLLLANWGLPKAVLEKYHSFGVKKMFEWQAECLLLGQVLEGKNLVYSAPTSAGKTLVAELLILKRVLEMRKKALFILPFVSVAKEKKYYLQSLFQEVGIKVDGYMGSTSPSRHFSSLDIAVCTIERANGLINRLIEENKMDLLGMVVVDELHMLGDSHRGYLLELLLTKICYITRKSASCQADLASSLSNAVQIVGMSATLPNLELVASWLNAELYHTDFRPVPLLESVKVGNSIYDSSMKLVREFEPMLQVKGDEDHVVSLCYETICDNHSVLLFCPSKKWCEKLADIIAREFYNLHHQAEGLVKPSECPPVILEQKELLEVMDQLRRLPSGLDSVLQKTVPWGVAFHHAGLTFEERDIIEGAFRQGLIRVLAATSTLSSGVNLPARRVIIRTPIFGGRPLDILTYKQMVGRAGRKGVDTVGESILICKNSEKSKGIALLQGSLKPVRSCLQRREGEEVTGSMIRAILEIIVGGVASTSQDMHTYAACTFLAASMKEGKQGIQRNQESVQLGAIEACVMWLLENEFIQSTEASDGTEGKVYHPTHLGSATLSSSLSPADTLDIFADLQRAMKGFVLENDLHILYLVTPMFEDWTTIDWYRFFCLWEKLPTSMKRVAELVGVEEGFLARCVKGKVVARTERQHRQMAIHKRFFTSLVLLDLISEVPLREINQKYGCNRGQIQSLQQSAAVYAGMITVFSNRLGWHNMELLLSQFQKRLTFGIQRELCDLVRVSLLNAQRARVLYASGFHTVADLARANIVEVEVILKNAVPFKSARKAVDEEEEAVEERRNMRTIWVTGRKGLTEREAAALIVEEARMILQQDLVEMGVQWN

IC50 | Compound
≤ 0.2 µM | COc1cnc(C)cc1-c1cc(C)ncc1C(=O)Nc1nnc(OCc2ccc(OC(F)F)cn2)s1 [Example 82, N-(5-((5-(difluoromethoxy)pyridin-2-yl)methoxy)-1,3,4-thiadiazol-2-yl)-5′-methoxy-2′,6-dimethyl-(4,4′-bipyridine)-3-carboxamide]
≤ 0.2 µM | COc1cnc(C)cc1-c1cc(C)ncc1C(=O)Nc1nnc(OCc2ccc(C(C)(C)C#N)cn2)s1 [Example 83, N-(5-((5-(2-cyanopropan-2-yl)pyridin-2-yl)methoxy)-1,3,4-thiadiazol-2-yl)-5′-methoxy-2′,6-dimethyl-(4,4′-bipyridine)-3-carboxamide]
≤ 0.2 µM | COc1cnc(Cl)cc1-c1cc(C)ncc1C(=O)Nc1nnc(OCc2ccc(C(C)(C)C#N)cn2)s1 [Example 84, 2′-chloro-N-(5-((5-(2-cyanopropan-2-yl)pyridin-2-yl)methoxy)-1,3,4-thiadiazol-2-yl)-5′-methoxy-6-methyl-(4,4′-bipyridine)-3-carboxamide]
≤ 0.2 µM | COc1c(-c2cc(C)ncc2C(=O)Nc2nnc(OCc3ccc(Cl)cn3)s2)ccnc1C#N [Example 85, N-(5-((5-chloropyridin-2-yl)methoxy)-1,3,4-thiadiazol-2-yl)-2′-cyano-3′-methoxy-6-methyl-[4,4′-bipyridine]-3-carboxamide]
≤ 0.2 µM | COc1cnc(Cl)cc1-c1cc(C)ncc1C(=O)Nc1nnc(OCc2ccc(C3(C)COC3)cn2)s1 [Example 86, 2′-chloro-5′-methoxy-6-methyl-N-(5-((5-(3-methyloxetan-3-yl)pyridin-2-yl)methoxy)-1,3,4-thiadiazol-2-yl)-[4,4′-bipyridine]-3-carboxamide]
≤ 0.2 µM | COc1cccc(F)c1-c1cc(C)ncc1C(=O)Nc1nnc(OCc2ncc(C(C)(C)O)cc2F)s1 [Example 87, N-(5-((3-fluoro-5-(2-hydroxypropan-2-yl)pyridin-2-yl)methoxy)-1,3,4-thiadiazol-2-yl)-4-(2-fluoro-6-methoxyphenyl)-6-methylpyridine-3-carboxamide]
≤ 0.2 µM | COc1cccc(F)c1-c1cc(C)ncc1C(=O)Nc1nnc(OCc2ccc(C(C)(C)C#N)cn2)s1 [Example 88, N-(5-((5-(2-cyanopropan-2-yl)pyridin-2-yl)methoxy)-1,3,4-thiadiazol-2-yl)-4-(2-fluoro-6-methoxyphenyl)-6-methylnicotinamide]
0.2 to 0.5 µM | Cc1cc(-c2cc(C)ncc2C(=O)Nc2nnc(OCc3ccc(C(C)(C)O)cn3)s2)ccn1 [Example 89, N-(5-((5-(2-hydroxypropan-2-yl)pyridin-2-yl)methoxy)-1,3,4-thiadiazol-2-yl)-2′,6-dimethyl-(4,4′-bipyridine)-3-carboxamide]
≤ 0.2 µM | COc1cnc(C)cc1-c1cc(C)ncc1C(=O)Nc1nnc(OCc2ccc(C(=O)O)cn2)s1 [Example 90, 6-(((5-(5′-methoxy-2′,6-dimethyl-(4,4′-bipyridine)-3-amido)-1,3,4-thiadiazol-2-yl)oxy)methyl)pyridine-3-carboxylic acid]
≤ 0.2 µM | COc1cccc(COc2nnc(NC(=O)c3cnc(C)cc3-c3c(F)cccc3OC)s2)n1 [Example 91, 4-(2-fluoro-6-methoxyphenyl)-N-(5-((6-methoxypyridin-2-yl)methoxy)-1,3,4-thiadiazol-2-yl)-6-methylpyridine-3-carboxamide]
≤ 0.2 µM | COc1cccc(F)c1-c1cc(C)ncc1C(=O)Nc1nnc(OCc2ccc([C@H](C)OC)cn2)s1 [Example 93, 4-(2-fluoro-6-methoxyphenyl)-N-(5-((5-((S)-1-methoxyethyl)pyridin-2-yl)methoxy)-1,3,4-thiadiazol-2-yl)-6-methylnicotinamide]
≤ 0.2 µM | COc1cccc(F)c1-c1cc(C)ncc1C(=O)Nc1nnc(OCc2ccc([C@@H](C)OC)cn2)s1 [Example 94, 4-(2-fluoro-6-methoxyphenyl)-N-(5-((5-((R)-1-methoxyethyl)pyridin-2-yl)methoxy)-1,3,4-thiadiazol-2-yl)-6-methylnicotinamide]
≤ 0.2 µM | COc1cccc(F)c1-c1cc(C)ncc1C(=O)Nc1nnc(OCC23CC(C#N)(C2)C3)s1 [Example 95, N-(5-((3-cyanobicyclo(1.1.1)pentan-1-yl)methoxy)-1,3,4-thiadiazol-2-yl)-4-(2-fluoro-6-methoxyphenyl)-6-methylpyridine-3-carboxamide]
≤ 0.2 µM | COc1ccc(Cl)cc1-c1cc(C)ncc1C(=O)Nc1nnc(OCc2ccc(C(C)(C)O)cn2)s1 [Example 96, 4-(5-chloro-2-methoxyphenyl)-N-(5-((5-(2-hydroxypropan-2-yl)pyridin-2-yl)methoxy)-1,3,4-thiadiazol-2-yl)-6-methylnicotinamide]
≤ 0.2 µM | COc1cccc(F)c1-c1cc(C)ncc1C(=O)Nc1nnc(OCc2cnc(CO)cn2)s1 [Example 97, 4-(2-fluoro-6-methoxyphenyl)-N-(5-((5-(hydroxymethyl)pyrazin-2-yl)methoxy)-1,3,4-thiadiazol-2-yl)-6-methylnicotinamide]
≤ 0.2 µM | COc1cnc(C)cc1-c1cc(C)ncc1C(=O)Nc1nnc(OCC23CC(O)(C2)C3)s1 [Example 98, N-(5-((3-hydroxybicyclo(1.1.1)pentan-1-yl)methoxy)-1,3,4-thiadiazol-2-yl)-5′-methoxy-2′,6-dimethyl-(4,4′-bipyridine)-3-carboxamide]
≤ 0.2 µM | COc1cnc(Cl)cc1-c1cc(C)ncc1C(=O)Nc1nnc(OCC23CC(O)(C2)C3)s1 [Example 99, 2′-chloro-N-(5-((3-hydroxybicyclo(1.1.1)pentan-1-yl)methoxy)-1,3,4-thiadiazol-2-yl)-5′-methoxy-6-methyl-(4,4′-bipyridine)-3-carboxamide]
≤ 0.2 µM | COc1cnc(C)cc1-c1cc(C)ncc1C(=O)Nc1nnc(OC[C@H]2CC[C@H](O)CC2)s1 [Example 100, N-(5-(((1r,4r)-4-hydroxycyclohexyl)methoxy)-1,3,4-thiadiazol-2-yl)-5′-methoxy-2′,6-dimethyl-[4,4′-bipyridine]-3-carboxamide]
≤ 0.2 µM | COc1cccc(F)c1-c1cc(C)ncc1C(=O)Nc1nnc(OC[C@H]2CC[C@@H](O)CC2)s1 [Example 101, 4-(2-fluoro-6-methoxyphenyl)-N-(5-(((1s,4s)-4-hydroxycyclohexyl)methoxy)-1,3,4-thiadiazol-2-yl)-6-methylnicotinamide]
≤ 0.2 µM | COc1cccc(F)c1-c1cc(C)ncc1C(=O)Nc1nnc(OCc2ccc3c(n2)CCOC3)s1 [Example 102, 4-(2-fluoro-6-methoxyphenyl)-6-methyl-N-(5-(5H,7H,8H-pyrano(4,3-b)pyridin-2-ylmethoxy)-1,3,4-thiadiazol-2-yl)pyridine-3-carboxamide]
≤ 0.2 µM | COc1cccc(F)c1-c1cc(C)ncc1C(=O)Nc1nnc(OCC23CC(C(C)(C)O)(C2)C3)s1 [Example 103, 4-(2-fluoro-6-methoxyphenyl)-N-(5-((3-(2-hydroxypropan-2-yl)bicyclo(1.1.1)pentan-1-yl)methoxy)-1,3,4-thiadiazol-2-yl)-6-methylpyridine-3-carboxamide]
≤ 0.2 µM | COc1cccc(F)c1-c1cc(C)ncc1C(=O)Nc1nnc(OC[C@H]2CC[C@H](O)CC2)s1 [Example 104, 4-(2-fluoro-6-methoxyphenyl)-N-(5-(((1r,4r)-4-hydroxycyclohexyl)methoxy)-1,3,4-thiadiazol-2-yl)-6-methylnicotinamide]
≤ 0.2 µM | COc1cnc(C2CC2)cc1-c1cc(C)ncc1C(=O)Nc1nnc(OCc2ccc(C(C)(C)O)cn2)s1 [Example 105, 2′-cyclopropyl-N-(5-((5-(2-hydroxypropan-2-yl)pyridin-2-yl)methoxy)-1,3,4-thiadiazol-2-yl)-5′-methoxy-6-methyl-[4,4′-bipyridine]-3-carboxamide]
≤ 0.2 µM | CCc1cc(-c2cc(C)ncc2C(=O)Nc2nnc(OCc3ccc(C(C)(C)O)cn3)s2)c(OC)cn1 [Example 106, 2′-ethyl-N-(5-((5-(2-hydroxypropan-2-yl)pyridin-2-yl)methoxy)-1,3,4-thiadiazol-2-yl)-5′-methoxy-6-methyl-[4,4′-bipyridine]-3-carboxamide]
≤ 0.2 µM | COc1cnc(C)cc1-c1cc(C)ncc1C(=O)Nc1nnc(OC[C@H]2C[C@H](O)C2)s1 [Example 107, N-(5-(((1r,3r)-3-hydroxycyclobutyl)methoxy)-1,3,4-thiadiazol-2-yl)-5′-methoxy-2′,6-dimethyl-[4,4′-bipyridine]-3-carboxamide]
≤ 0.2 µM | COc1cnc(Cl)cc1-c1cc(C)ncc1C(=O)Nc1nnc(OC[C@H]2C[C@H](O)C2)s1 [Example 108, 2′-chloro-N-(5-(((1r,3r)-3-hydroxycyclobutyl)methoxy)-1,3,4-thiadiazol-2-yl)-5′-methoxy-6-methyl-[4,4′-bipyridine]-3-carboxamide]
≤ 0.2 µM | COc1cccc(F)c1-c1cc(C)ncc1C(=O)Nc1nnc(OCc2ccc(C(C)(C)O)nc2)s1 [Example 109, 4-(2-fluoro-6-methoxyphenyl)-N-(5-((6-(2-hydroxypropan-2-yl)pyridin-3-yl)methoxy)-1,3,4-thiadiazol-2-yl)-6-methylpyridine-3-carboxamide]
≤ 0.2 µM | COc1cccc(F)c1-c1cc(C)ncc1C(=O)Nc1nnc(OCc2cnc([C@H](C)O)cn2)s1 [Example 110, 4-(2-fluoro-6-methoxyphenyl)-N-(5-((5-((S)-1-hydroxyethyl)pyrazin-2-yl)methoxy)-1,3,4-thiadiazol-2-yl)-6-methylnicotinamide]
≤ 0.2 µM | COc1cccc(F)c1-c1cc(C)ncc1C(=O)Nc1nnc(OCc2cnc([C@@H](C)O)cn2)s1 [Example 111, 4-(2-fluoro-6-methoxyphenyl)-N-(5-((5-((R)-1-hydroxyethyl)pyrazin-2-yl)methoxy)-1,3,4-thiadiazol-2-yl)-6-methylnicotinamide]

Source: US20250325552A1, “SUBSTITUTED THIADIAZOLYL DERIVATIVES AS DNA POLYMERASE THETA INHIBITORS” (IDEAYA Biosciences, Inc., priority 2020, published 2025)
